Results on 20 compounds are retold here after patent US20090203577A1 (EXELIXIS, INC., priority 2005, published 2009).

Converted amounts (≈) assume the structure as drawn.

One series is described as follows: physchem. Conditions: pH 7.4, aqueous buffer, kinetic from dmso stock. As for the experimental part:
The kinetic solubility of test compounds in buffer was evaluated using a 96 well filtration plate format. A 500 μM assay solution in PBS, pH7.4 (or other assay buffer, as needed) was generated form a DMSO stock solution (up to 10 mM). Samples were transferred to a 96 Millipore MultiScreen HTS 96-well Filter plate (Cat# MSSLBPC10) mixed by shaking for 1.5 hours and processed by filtration prior to quantitation by HPLC-UV. Amiodarone and testosterone were used as reference controls.

Series [1] addresses T1, human farnesoid X receptor (Homo sapiens, UniProt Q96RI1).
T1 construct: CMX-farnesoid X receptor (full length human farnesoid X receptor); expressed in transfected cells; host or cells: CV-1 African Green Monkey Kidney cells
T1 sequence (Q96RI1 1-472 isoform Q96RI1-2): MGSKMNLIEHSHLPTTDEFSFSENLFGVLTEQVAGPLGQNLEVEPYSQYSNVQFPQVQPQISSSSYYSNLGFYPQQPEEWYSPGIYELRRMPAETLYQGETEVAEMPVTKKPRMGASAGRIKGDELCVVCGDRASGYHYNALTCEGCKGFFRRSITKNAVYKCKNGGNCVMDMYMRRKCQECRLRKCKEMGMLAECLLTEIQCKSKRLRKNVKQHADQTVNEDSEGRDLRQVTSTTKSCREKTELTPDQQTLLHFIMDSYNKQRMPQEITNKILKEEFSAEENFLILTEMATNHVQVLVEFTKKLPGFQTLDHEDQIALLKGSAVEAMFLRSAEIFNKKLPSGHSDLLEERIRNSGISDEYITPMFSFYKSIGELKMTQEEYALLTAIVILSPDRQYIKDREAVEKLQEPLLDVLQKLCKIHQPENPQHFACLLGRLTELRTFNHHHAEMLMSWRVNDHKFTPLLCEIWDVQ
T1 sequence (P19793 1-462 partner): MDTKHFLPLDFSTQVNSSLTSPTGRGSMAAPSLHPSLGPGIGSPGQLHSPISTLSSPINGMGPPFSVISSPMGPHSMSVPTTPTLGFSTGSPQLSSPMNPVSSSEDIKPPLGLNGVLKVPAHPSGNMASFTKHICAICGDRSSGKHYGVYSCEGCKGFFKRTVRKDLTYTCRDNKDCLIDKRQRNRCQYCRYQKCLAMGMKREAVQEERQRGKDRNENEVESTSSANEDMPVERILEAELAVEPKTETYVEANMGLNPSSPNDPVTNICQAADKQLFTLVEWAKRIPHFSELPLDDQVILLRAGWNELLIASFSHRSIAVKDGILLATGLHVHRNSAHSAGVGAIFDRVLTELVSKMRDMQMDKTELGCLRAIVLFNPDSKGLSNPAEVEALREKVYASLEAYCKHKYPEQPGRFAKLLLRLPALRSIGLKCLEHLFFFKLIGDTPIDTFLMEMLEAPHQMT
In words: FXR in vitro assays (farnesoid X receptor/ECREx7 co-transfection assay, TR-FRET assay), Table I. In kind it is cell-based. Conditions: for EC50: agonist activity, one or more of the in vitro assays, read-out: EC50; for Emax: read-out: % Efficacy. The method, boiled down: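 CV-1 monkey kidney cells transfected for an FXR/ECREx7 luciferase co-transfection reporter; luciferase read 18-20 h later in lysates. 8-point dose-response at ½-log spacing, 4 wells per point; EC50/IC50 from four-parameter Hill fit, averaged over at least 3 independent experiments.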
For orientation: In TR-FRET formats the signal depends on donor and acceptor labels being close together.

A word on the kinetic solubility: it is solubility judged after dilution from a stock solution rather than from solid. The EC50 is the concentration that produces a half-maximal response. As for `CC(C)OC(=O)C1=CN(C(=O)N2CCN(CC(=O)N3CCCC3)CC2)CC(C)(C)c2c1[nH]c1ccccc21` [Example 37, 1-methylethyl 1,1-dimethyl-3-{[4-(2-oxo-2-pyrrolidin-1-ylethyl)piperazin-1-yl]carbonyl}-1,2,3,6-tetrahydroazepino [4,5-b]indole-5-carboxylate], in “physchem”, the kinetic solubility at 1.5 h is more than 10 µM. Further, in series [1], the EC50 fell in the range of 100 to 1000 nM and the Emax was more than 100%.
In the same order, the values of `CC1(C)CN(C(=O)c2ccc(F)c(F)c2)C=C(C(=O)OCCO)c2[nH]c3ccccc3c21` [Example 196, 2-hydroxyethyl 3-[(3,4-difluorophenyl)carbonyl]-1,1-dimethyl-1,2,3,6-tetrahydroazepino[4,5-b]indole-5-carboxylate] are 1 to 10 µM (≈ 0.44 to 4.4 µg/mL), 10 to 100 nM and more than 100%.
In the same order, the values of `CC(C)OC(=O)C1=CN(C(=O)C2CCN(C)CC2)CC(C)(C)c2c1[nH]c1ccccc21` [Example 6, 1-methylethyl 1,1-dimethyl-3-[(1-methylpiperidin-4-yl)carbonyl]-1,2,3,6-tetrahydroazepino[4,5-b]indole-5-carboxylate] are 0.1 to 1 µM (≈ 0.0424 to 0.424 µg/mL), 1000 to 10000 nM and more than 100%.
`CC(C)OC(=O)C1=CN(C(=O)NC2CCCCC2)CC(C)(C)c2c1[nH]c1ccccc21` [Example 45, 1-methylethyl 3-[(cyclohexylamino)carbonyl]-1,1-dimethyl-1,2,3,6-tetrahydroazepino[4,5-b]indole-5-carboxylate] displayed a solubility (kinetic) at 1.5 h in “physchem” of 1 to 10 µM (≈ 0.424 to 4.24 µg/mL). For the same compound, in series [1], the EC50 was 10 to 100 nM and the Emax is more than 100%.
In the same order, the values of `CC(C)OC(=O)C1=CN(C(=O)N2CCC[C@@H](CN(C)C)C2)CC(C)(C)c2c1[nH]c1ccccc21` [Example 50, 1-methylethyl 3-({(3S)-3-[(dimethylamino)methyl]piperidin-1-yl}carbonyl)-1,1-dimethyl-1,2,3,6-tetrahydroazepino[4,5-b]indole-5-carboxylate] are more than 10 µM, 1000 to 10000 nM and 60 to 80%.
Taken in the same sequence, the figures for `CC(C)OC(=O)C1=CN(C(=O)N2CCC[C@H](CN(C)C)C2)CC(C)(C)c2c1[nH]c1ccccc21` [Example 51, 1-methylethyl 3-({(3R)-3-[(dimethylamino)methyl]piperidin-1-yl}carbonyl)-1,1-dimethyl-1,2,3,6-tetrahydroazepino[4,5-b]indole-5-carboxylate] were more than 10 µM, 1000 to 10000 nM and more than 100%.
Taken in the same sequence, the figures for `CC(C)OC(=O)C1=CN(C(=O)c2cccc(OCc3ccccc3)c2)CC(C)(C)c2c1[nH]c1ccccc21` [Example 127, 1-methylethyl 1,1-dimethyl-3-({3-[(phenylmethyl)oxy]phenyl}carbonyl)-1,2,3,6-tetrahydroazepino[4,5-b]indole-5-carboxylate] were 1 to 10 µM (≈ 0.509 to 5.09 µg/mL), 10 to 100 nM and more than 100%.
Compound `CC(C)OC(=O)C1=CN(C(=O)c2ccccc2C(F)(F)F)CC(C)(C)c2c1[nH]c1ccccc21` [Example 64, 1-methylethyl 1,1-dimethyl-3-{[2-(trifluoromethyl)phenyl]-carbonyl}-1,2,3,6-tetrahydroazepino[4,5-b]indole-5-carboxylate] gave a kinetic solubility at 1.5 h in “physchem” of 1 to 10 µM (≈ 0.47 to 4.7 µg/mL). Moreover, in series [1], the EC50 fell in the range of 10 to 100 nM and the Emax is more than 100%.
Taken in the same sequence, the figures for `CC(C)OC(=O)C1=CN(C(=O)c2cccc(Cl)c2)CC(C)(C)c2c1[nH]c1ccccc21` [Example 81, 1-methylethyl 3-[(3-chlorophenyl)carbonyl]-1,1-dimethyl-1,2,3,6-tetrahydroazepino[4,5-b]indole-5-carboxylate] were 1 to 10 µM (≈ 0.437 to 4.37 µg/mL), 10 to 100 nM and more than 100%.
In the same order, the values of `CC1(C)CN(C(=O)c2ccc(F)c(F)c2)C=C(C(=O)OC[C@@H](O)CO)c2[nH]c3ccccc3c21` [Example 171, (2S)-2,3-dihydroxypropyl-3-[(3,4-difluorophenyl)carbonyl]-1,1-dimethyl-1,2,3,6-tetrahydroazepino[4,5-b]indole-5-carboxylate] are more than 10 µM, 10 to 100 nM and more than 100%.
`C[C@]12CC[C@H]3[C@@H](CCC4=CC(=O)CC[C@@]43C)[C@@H]1CC[C@@H]2O` [testosterone, reference compound]: the solubility (kinetic) in “physchem” was approximately 330 µM (≈ 95.2 µg/mL).
Consider `CC(C)OC(=O)C1=CN(C(=O)c2cccc(OCCN3CCCCC3)c2)CC(C)(C)c2c1[nH]c1ccccc21` [Example 159, 1-methylethyl 1,1-dimethyl-3-({3-[(2-piperidin-1-ylethyl)oxy]phenyl}carbonyl)-1,2,3,6-tetrahydroazepino[4,5-b]indole-5-carboxylate], for which the solubility (kinetic) at 1.5 h in the series “physchem” was in the range of 1 to 10 µM (≈ 0.53 to 5.3 µg/mL).
On the same count and under the same terms, next, `CC(C)OC(=O)C1=CN(C(=O)c2ccc(OCCN3CCOCC3)cc2)CC(C)(C)c2c1[nH]c1ccccc21` [Example 181, 1-methylethyl 1,1-dimethyl-3-({4-[(2-morpholin-4-ylethyl)oxy]phenyl}carbonyl)-1,2,3,6-tetrahydroazepino[4,5-b]indole-5-carboxylate]: 1 to 10 µM (≈ 0.532 to 5.32 µg/mL).
With `CC1(C)CN(C(=O)c2ccc(F)c(F)c2)C=C(C(=O)OC[C@H](O)CO)c2[nH]c3ccccc3c21` [Example 129, (2R)-2,3-dihydroxypropyl 3-[(3,4-difluorophenyl)carbonyl]-1,1-dimethyl-1,2,3,6-tetrahydroazepino[4,5-b]indole-5-carboxylate], in series [1], the EC50 fell in the range of 100 to 1000 nM and the Emax was more than 100%.
With `CC(C)OC(=O)C1=CN(C(=O)c2cccc(CCl)c2)CC(C)(C)c2c1[nH]c1ccccc21` [Example 113, 1-methylethyl 3-{[3-(chloromethyl)phenyl]car-bonyl}-1,1-dimethyl-1,2,3,6-tetrahydroazepino[4,5-b]indole-5-carboxylate], in series [1], the EC50 lay in the range of 10 to 100 nM and the Emax was more than 100%.
Taken in the same sequence, the figures for `COc1cccc(C(=O)N2C=C(C(=O)OC(C)C)c3[nH]c4ccccc4c3C(C)(C)C2)c1` [Example 88, 1-methylethyl 1,1-dimethyl-3-{[3-(methyloxy)phenyl]carbonyl}-1,2,3,6-tetrahydroazepino[4,5-b]indole-5-carboxylate] were 10 to 100 nM and more than 100%.
Taken in the same sequence, the figures for `CC1(C)CN(C(=O)c2ccc(F)c(F)c2)C=C(C(=O)OC(CF)CF)c2[nH]c3ccccc3c21` [Example 136, 2-fluoro-1-(fluoromethyl)ethyl 3-[(3,4-difluorophenyl)carbonyl]-1,1-dimethyl-1,2,3,6-tetrahydroazepino[4,5-b]indole-5-carboxylate] were 1 to 10 nM and more than 100%.
With `CC(C)OC(=O)C1=CN(C(=O)c2ccc(F)cc2C(F)(F)F)CC(C)(C)c2c1[nH]c1ccccc21` [Example 110, 1-methylethyl 3-{[4-fluoro-2-(trifluoromethyl)phenyl]car-bonyl}-1,1-dimethyl-1,2,3,6-tetrahydroazepino[4,5-b]indole-5-carboxylate], in series [1], the EC50 lay in the range of 10 to 100 nM and the Emax was more than 100%.
In the same order, the values of `CC(C)OC(=O)C1=CN(C(=O)c2cccc(C(F)(F)F)c2)CC(C)(C)c2c1[nH]c1ccccc21` [Example 128, 1-methylethyl 1,1-dimethyl-3-{[3-(trifluoromethyl)phenyl]car-bonyl}-1,2,3,6-tetrahydroazepino[4,5-b]indole-carboxylate] are 10 to 100 nM and more than 100%.
Regarding `COc1ccc(C(=O)N2C=C(C(=O)OC(C)C)c3[nH]c4ccccc4c3C(C)(C)C2)cc1` [Example 89, 1-methylethyl 1,1-dimethyl-3-{[4-(methyloxy)phenyl)carbonyl}-1,2,3,6-tetrahydroazepino[4,5-b]indole-5-carboxylate], in series [1], the EC50 lay within 1 to 10 nM and the Emax was more than 100%.
